BindingDB's records for doi:10.1124/jpet.102.047118 (Juvantia Pharma, 2003)
pKi: −log10 of the molar value. Several values for one entry are separate records, joined by “and”; a condition that tells them apart may be missing. Equal values may be shown once. Peptide text beside a SMILES is read from it.

Experiments:
[1] = molecular target: Neuropeptide FF receptor 2 (Homo sapiens, UniProt Q9Y5X5)
[2] = molecular target: T1, Prolactin-releasing peptide receptor (Homo sapiens, UniProt P49683)
T1 sequence (P49683 whole entry): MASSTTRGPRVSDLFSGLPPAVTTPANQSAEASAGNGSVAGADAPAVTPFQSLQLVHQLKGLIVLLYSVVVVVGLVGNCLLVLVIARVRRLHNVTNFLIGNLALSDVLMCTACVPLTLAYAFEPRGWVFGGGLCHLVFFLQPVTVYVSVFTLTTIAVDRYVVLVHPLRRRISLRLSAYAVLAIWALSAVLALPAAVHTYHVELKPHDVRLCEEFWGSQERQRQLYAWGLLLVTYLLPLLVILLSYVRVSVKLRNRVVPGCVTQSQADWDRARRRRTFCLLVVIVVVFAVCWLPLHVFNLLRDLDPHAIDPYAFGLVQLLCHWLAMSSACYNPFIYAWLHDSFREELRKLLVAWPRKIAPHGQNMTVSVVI

Chain of Neuropeptide FF receptor 2 (Q9Y5X5 whole entry): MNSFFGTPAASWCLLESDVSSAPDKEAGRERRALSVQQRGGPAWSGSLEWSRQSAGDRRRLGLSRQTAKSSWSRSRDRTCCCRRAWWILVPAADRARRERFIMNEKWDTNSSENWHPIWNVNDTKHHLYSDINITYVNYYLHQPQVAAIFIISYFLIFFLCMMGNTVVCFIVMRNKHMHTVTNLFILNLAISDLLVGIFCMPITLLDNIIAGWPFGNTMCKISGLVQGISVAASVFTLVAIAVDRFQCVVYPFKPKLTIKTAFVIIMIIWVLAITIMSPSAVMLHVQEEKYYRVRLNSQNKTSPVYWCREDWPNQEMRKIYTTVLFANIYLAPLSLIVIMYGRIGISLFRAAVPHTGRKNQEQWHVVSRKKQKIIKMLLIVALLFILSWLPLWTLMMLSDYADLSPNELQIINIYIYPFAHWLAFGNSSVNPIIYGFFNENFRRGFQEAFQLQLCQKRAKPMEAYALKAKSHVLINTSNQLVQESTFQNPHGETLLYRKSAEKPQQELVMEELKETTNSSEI

Row | SMILES | pKi [1] | pKi | pKi [2]
1 | CC[C@H](C)[C@H](NC(=O)CNC(=O)[C@H](CCCNC(=N)N)NC(=O)CNC(=O)[C@@H](NC(=O)[C@H](Cc1ccc(O)cc1)NC(=O)[C@H](Cc1c[nH]c2ccccc12)NC(=O)[C@H](C)NC(=O)[C@@H]1CCCN1C(=O)[C@H](CC(N)=O)NC(=O)[C@@H](NC(=O)[C@H](CC(=O)O)NC(=O)[C@@H]1CCCN1C(=O)[C@@H](N)[C@@H](C)O)[C@@H](C)CC)[C@@H](C)O)C(=O)N[C@@H](CCCNC(=N)N)C(=O)N1CCC[C@H]1C(=O)N[C@H](C(=O)NCC(=O)N[C@@H](CCCNC(=N)N)C(=O)N[C@@H](Cc1ccccc1)C(N)=O)C(C)C [CAS_222988-10-5] (H-TPDINPAWYTGRGIRPVGRF-NH2) | 7.64 | 8.64 | 9.00
2 | CC(C)C[C@H](NC(=O)[C@H](CC(N)=O)NC(=O)[C@@H]1CCCN1C(=O)[C@@H](N)C(C)C)C(=O)N1CCC[C@H]1C(=O)N[C@@H](CCC(N)=O)C(=O)N[C@@H](CCCNC(=N)N)C(=O)N[C@@H](Cc1ccccc1)C(N)=O [RFamide-related peptide 3] | 7.26 | 7.72 | < 5.00
3 | N=C(N)NCCCC(NC(=O)C(c1ccccc1)c1ccccc1)C(=O)NCc1ccc(O)cc1 (configuration not stated) [NSC_5311023] | 6.19 | 6.41 | < 5.00
4 | CC(C)C[C@H](NC(=O)[C@@H](N)Cc1ccccc1)C(=O)N[C@@H](Cc1ccccc1)C(=O)N[C@@H](CCC(N)=O)C(=O)N1CCC[C@H]1C(=O)N[C@@H](CCC(N)=O)C(=O)N[C@@H](CCCN=C(N)N)C(=O)N[C@@H](Cc1ccccc1)C(=O)O [NSC_0] | – | 5.62 | –
5 | CSCC[C@H](N)C(=O)N1CCC[C@H]1C(=O)N[C@@H](Cc1cnc[nH]1)C(=O)N[C@@H](CO)C(=O)N[C@@H](Cc1ccccc1)C(=O)N[C@@H](C)C(=O)N[C@@H](CC(N)=O)C(=O)N[C@@H](CC(C)C)C(=O)N1CCC[C@H]1C(=O)N[C@@H](CC(C)C)C(=O)N[C@@H](CCCNC(=N)N)C(=O)N[C@@H](Cc1ccccc1)C(N)=O [RFamide-related peptide 1] (H-MPHSFANLPLRF-NH2) | 7.82 | 7.82 | < 5.00
6 | CC(C)C[C@H](NC(=O)[C@H](N)Cc1ccc(O)cc1)C(=O)N(C)[C@@H](Cc1ccccc1)C(=O)N[C@@H](CCC(N)=O)C(=O)N1CCC[C@H]1C(=O)N[C@@H](CCC(N)=O)C(=O)N[C@@H](CCCN=C(N)N)C(=O)N[C@@H](Cc1ccccc1)C(N)=O [CAS_132709] (HELM PEPTIDE1{[dY].L.[meF].Q.P.Q.R.F.[am]}$$$$V2.0) | 8.28 | – | –
7 | CC(C)C[C@H](NC(=O)[C@@H](N)Cc1ccccc1)C(=O)N[C@@H](Cc1ccccc1)C(=O)N[C@@H](CCC(N)=O)C(=O)N1CCC[C@H]1C(=O)N[C@@H](CCC(N)=O)C(=O)N[C@@H](CCCN=C(N)N)C(=O)N[C@@H](Cc1ccccc1)C(N)=O [CAS_235433-36-0] | – | 8.28 and 8.23 | –
8 | CC[C@H](C)[C@H](NC(=O)CN)C(=O)N[C@@H](CCCN=C(N)N)C(=O)N1CCC[C@H]1C(=O)N[C@H](C(=O)NCC(=O)N[C@@H](CCCN=C(N)N)C(=O)N[C@@H](Cc1ccccc1)C(N)=O)C(C)C [NSC_0] (H-GIRPVGRF-NH2) | 7.49 | – | 7.33
